Measurements: publication PMC4023971, “Targeting Prolyl Endopeptidase with Valproic Acid as a Potential Modulator of Neutrophilic Inflammation” (PLoS ONE, 2014)

Target: T1, prolyl endopeptidase (PE, rhPE) (Homo sapiens, UniProt P48147)
T1 construct: gene PREP; recombinant human PE expressed in E. coli from plasmid pTrcHis PE
T1 sequence (P48147 1-710): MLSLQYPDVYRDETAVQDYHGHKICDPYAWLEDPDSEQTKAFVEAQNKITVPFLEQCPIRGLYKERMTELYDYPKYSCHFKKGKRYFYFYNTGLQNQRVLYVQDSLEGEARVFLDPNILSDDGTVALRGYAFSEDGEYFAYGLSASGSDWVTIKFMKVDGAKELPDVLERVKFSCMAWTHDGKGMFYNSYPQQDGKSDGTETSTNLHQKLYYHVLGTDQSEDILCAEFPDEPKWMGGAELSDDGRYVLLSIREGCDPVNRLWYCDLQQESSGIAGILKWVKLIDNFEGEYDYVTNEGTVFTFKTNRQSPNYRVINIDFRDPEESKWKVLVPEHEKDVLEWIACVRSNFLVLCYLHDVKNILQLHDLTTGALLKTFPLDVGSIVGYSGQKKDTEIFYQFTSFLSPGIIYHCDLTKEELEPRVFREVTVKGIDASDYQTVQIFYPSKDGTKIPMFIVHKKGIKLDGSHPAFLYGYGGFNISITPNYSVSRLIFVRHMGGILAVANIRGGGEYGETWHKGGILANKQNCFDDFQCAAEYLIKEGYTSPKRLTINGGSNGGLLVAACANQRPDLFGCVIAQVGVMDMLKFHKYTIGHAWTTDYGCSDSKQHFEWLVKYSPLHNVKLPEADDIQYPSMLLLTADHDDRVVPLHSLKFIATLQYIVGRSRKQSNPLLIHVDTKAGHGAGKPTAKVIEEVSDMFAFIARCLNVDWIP
Test: purified rhPE activity assay (Suc-Gly-Pro-AMC fluorescence / Suc-Gly-Pro-pNA UV-vis, Lineweaver-Burk); supported by CD and NMR competition with ZPP
Format: biochemical

Structure (SMILES): CCCC(CCC)C(=O)O [VPA, Valproic acid]
- Ki: 1000 to 2000 µM
